# From ChEMBL document CHEMBL1201862, “PubChem BioAssay data set” (2004)
# The source made the active and inactive calls. For most assays here, no stated cut-off is given here; in the data, actives have a measured EC50 and inactives only a lower limit.
# How the values were obtained:
# [1] = biological target: T1, Carboxy-terminal domain RNA polymerase II polypeptide A small phosphatase 1 (Homo sapiens, UniProt Q9GZU7); assay: CTDSP1 inhibitors, concentration-response, biochemical, absorbance readout, ultra-high-throughput screen actives (AID 540297); assay type: functional
# T1 sequence (Q9GZU7 whole entry): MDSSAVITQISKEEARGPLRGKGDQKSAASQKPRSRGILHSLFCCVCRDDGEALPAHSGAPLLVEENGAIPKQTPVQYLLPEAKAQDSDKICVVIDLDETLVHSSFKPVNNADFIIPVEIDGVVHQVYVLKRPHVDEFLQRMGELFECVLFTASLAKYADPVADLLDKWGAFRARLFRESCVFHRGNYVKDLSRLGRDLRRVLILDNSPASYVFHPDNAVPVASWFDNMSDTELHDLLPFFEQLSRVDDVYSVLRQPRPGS
# [2] = biological target: T2, Zinc finger protein mex-5 (Caenorhabditis elegans, UniProt Q9XUB2); assay: potency of MEX-5 RNA-binding blockers – biochemical, C. elegans, fluorescence polarization, dose response (AID 1960)
# T2 sequence (Q9XUB2 whole entry): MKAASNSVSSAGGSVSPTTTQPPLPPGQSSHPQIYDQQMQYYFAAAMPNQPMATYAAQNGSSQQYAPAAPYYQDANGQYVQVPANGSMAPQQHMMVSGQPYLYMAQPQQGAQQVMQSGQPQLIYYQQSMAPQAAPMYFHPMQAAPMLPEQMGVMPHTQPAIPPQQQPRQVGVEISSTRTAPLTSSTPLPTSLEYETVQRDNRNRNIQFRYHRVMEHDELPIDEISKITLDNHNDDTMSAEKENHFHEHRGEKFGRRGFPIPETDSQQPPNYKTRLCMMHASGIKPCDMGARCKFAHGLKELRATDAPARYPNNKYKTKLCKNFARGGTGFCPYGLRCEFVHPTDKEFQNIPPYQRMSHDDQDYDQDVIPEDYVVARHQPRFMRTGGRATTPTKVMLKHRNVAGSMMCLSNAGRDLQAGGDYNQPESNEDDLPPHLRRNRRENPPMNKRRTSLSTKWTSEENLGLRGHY
# [3] = biological target: T3, RNA-binding protein pos-1 (Caenorhabditis elegans, UniProt G5EF15); assay: disruptors of C. elegans POS-1 RNA interaction – biochemical, fluorescence polarization, dose response (AID 1964);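 further: purified POS-1 fused to maltose binding protein made in E. coli; potency of compounds blocking POS-1 binding to fluorescent RNA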
# T3 sequence (G5EF15 whole entry): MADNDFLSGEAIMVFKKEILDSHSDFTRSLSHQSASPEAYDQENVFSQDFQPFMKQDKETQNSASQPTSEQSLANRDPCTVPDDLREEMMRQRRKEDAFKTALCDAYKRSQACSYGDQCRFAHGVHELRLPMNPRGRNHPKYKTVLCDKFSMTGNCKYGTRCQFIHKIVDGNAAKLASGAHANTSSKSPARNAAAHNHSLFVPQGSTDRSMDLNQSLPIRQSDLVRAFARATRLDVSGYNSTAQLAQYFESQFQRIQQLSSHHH
# [4] = biological target: T4, Heat shock factor protein 1 (Mus musculus, UniProt P38532); assay: decrease of HSF1-responsive luciferase luminescence – cell-based, NIH3T3, dose retest, confirmation (AID 2382); assay type: functional;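 further: NIH3T3 fibroblasts with HSF1-driven luciferase reporter stressed by proteasome inhibitor MG132; luminescence from HSF1-driven luciferase expression after 8 hours of MG132 stress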
# T4 sequence (P38532 whole entry): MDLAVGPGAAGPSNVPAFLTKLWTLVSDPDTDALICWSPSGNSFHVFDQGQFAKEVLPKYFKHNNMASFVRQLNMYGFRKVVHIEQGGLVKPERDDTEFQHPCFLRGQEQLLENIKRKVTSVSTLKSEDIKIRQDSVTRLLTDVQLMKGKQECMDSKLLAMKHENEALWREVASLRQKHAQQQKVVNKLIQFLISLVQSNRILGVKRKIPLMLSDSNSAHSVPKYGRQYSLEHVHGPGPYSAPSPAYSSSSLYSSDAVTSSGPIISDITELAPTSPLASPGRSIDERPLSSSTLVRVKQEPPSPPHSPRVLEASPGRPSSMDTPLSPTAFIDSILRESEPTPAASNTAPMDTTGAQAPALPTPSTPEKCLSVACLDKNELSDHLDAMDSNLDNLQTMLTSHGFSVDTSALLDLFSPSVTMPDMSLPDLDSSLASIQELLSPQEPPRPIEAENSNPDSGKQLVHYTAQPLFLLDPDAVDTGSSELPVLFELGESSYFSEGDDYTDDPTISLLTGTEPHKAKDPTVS
# [5] = biological target: Cytochrome P450 3A4 (Homo sapiens, UniProt P08684);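 further: CYP3A4 tested as one member of a cytochrome P450 panel screen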
# [6] = biological target: T5, Replicative DNA helicase DnaB (Mycobacterium tuberculosis, UniProt P9WMR3); assay: DnaB intein splicing inhibitors, dose response, biochemical, cell-free fluorescence (AID 449749); assay type: functional
# T5 sequence (P9WMR3 whole entry): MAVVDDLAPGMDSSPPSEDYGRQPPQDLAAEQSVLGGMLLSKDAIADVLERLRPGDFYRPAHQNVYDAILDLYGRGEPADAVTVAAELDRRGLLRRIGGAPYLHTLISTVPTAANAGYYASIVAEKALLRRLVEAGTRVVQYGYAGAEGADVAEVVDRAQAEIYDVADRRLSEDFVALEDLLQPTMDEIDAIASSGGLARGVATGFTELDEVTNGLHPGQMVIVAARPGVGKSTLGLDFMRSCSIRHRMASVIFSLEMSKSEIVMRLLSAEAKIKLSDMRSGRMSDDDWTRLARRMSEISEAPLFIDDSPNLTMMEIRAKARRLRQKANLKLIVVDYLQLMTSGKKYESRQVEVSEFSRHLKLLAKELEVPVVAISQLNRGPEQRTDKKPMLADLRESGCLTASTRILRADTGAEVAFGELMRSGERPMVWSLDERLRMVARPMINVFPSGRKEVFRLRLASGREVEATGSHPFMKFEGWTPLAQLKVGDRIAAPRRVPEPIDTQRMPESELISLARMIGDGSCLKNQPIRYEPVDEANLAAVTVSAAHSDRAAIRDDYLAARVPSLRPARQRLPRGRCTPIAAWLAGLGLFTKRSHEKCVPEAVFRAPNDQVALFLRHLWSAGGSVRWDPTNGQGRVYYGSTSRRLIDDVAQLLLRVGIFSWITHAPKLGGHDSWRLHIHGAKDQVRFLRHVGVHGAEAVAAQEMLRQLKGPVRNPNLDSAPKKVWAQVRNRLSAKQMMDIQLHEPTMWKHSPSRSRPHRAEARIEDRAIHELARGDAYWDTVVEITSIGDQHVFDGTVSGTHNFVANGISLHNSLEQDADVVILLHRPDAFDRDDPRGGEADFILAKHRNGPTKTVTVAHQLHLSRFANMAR
# [7] = biological target: Cytochrome P450 2C9 (Homo sapiens, UniProt P11712)
# [8] = biological target: T6, Protein RecA (Mycobacterium tuberculosis, UniProt P9WHJ3); assay: Fluorescence Cell-Free Homogeneous Dose Retest to Identify Inhibitors of RecA-Intein Splicing Activity. [Related pubchem assays (depositor defined):AID2097, AID2223, AID489010, AID492950]; assay type: functional
# T6 sequence (P9WHJ3 whole entry): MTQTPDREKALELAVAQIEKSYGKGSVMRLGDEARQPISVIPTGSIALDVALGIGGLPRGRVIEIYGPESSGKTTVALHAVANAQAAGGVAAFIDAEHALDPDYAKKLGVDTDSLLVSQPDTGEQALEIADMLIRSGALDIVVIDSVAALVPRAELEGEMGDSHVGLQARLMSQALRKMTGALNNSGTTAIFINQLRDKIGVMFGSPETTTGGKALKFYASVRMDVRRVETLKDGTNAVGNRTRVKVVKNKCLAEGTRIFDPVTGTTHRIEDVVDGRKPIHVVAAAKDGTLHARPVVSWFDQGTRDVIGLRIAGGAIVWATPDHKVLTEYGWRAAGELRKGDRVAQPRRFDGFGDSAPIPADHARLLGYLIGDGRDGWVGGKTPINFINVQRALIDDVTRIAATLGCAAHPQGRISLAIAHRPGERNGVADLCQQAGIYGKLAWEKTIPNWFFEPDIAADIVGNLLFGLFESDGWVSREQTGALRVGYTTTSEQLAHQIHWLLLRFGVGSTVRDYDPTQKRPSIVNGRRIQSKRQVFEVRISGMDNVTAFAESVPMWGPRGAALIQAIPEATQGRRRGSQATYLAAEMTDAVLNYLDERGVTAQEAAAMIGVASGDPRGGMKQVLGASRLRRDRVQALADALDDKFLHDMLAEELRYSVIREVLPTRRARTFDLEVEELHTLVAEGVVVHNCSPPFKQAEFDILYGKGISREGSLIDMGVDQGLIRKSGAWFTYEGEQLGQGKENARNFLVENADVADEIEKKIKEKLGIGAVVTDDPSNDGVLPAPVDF
# [9] = tested on: H9c2; assay: cells; assay type: functional, cell-based; conditions: Rattus norvegicus, H9c2, Myocardium;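 further: confirmatory concentration-response retest of ultra-high-throughput screening hits for modulation of myocardial damage; cell death induced by hydrogen peroxide oxidative stress; compound pretreatment for 60 min then peroxide exposure for 2 h; potency is for protecting the cells against peroxide damage rather than for killing them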
# [10] = cells; assay type: functional, cell-based
# [11] = cells; assay type: functional, cell-based; remark: listed apart in the source
# [12] = Luminescence Cell-Based Dose Response HTS to Identify Activators of Luciferase Translation or Activity in H4 […] Cells. [Related pubchem assays: 1829 (Project Summary), 1814 (Primary HTS)]; assay type: functional
# [13] = viability of uninfected HEp-2 cells – cell-based, HTS, cytotoxicity control for RSV inhibitor project, dose response (AID 2410); assay type: functional; conditions: human respiratory syncytial virus
# [14] = tested on: H4; assay: Luminescence Cell-Based Dose Response HTS to Identify Activators of 5'UTR Stem-Loop Driven Prion Protein mRNA Translation in H4 Neuroglioblastoma Cells. [Related pubchem assays: 1829 (Project Summary), 1814 (Primary HTS)]; assay type: functional; conditions: Homo sapiens
# Cytochrome P450 2C9, sequence (P11712 whole entry): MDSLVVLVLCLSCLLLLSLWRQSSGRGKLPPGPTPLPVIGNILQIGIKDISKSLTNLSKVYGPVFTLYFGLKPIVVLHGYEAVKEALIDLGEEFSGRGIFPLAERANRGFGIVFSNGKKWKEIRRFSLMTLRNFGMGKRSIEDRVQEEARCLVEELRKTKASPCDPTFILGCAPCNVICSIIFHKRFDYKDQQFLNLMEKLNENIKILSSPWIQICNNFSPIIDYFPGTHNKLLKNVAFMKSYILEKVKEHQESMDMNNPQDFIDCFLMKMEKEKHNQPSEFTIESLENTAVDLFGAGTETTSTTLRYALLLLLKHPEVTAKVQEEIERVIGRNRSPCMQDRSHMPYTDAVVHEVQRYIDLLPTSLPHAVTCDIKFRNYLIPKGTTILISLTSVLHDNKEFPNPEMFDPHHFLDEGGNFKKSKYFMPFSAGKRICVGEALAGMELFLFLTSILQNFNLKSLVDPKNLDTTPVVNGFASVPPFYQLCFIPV
# Cytochrome P450 3A4, sequence (P08684 whole entry): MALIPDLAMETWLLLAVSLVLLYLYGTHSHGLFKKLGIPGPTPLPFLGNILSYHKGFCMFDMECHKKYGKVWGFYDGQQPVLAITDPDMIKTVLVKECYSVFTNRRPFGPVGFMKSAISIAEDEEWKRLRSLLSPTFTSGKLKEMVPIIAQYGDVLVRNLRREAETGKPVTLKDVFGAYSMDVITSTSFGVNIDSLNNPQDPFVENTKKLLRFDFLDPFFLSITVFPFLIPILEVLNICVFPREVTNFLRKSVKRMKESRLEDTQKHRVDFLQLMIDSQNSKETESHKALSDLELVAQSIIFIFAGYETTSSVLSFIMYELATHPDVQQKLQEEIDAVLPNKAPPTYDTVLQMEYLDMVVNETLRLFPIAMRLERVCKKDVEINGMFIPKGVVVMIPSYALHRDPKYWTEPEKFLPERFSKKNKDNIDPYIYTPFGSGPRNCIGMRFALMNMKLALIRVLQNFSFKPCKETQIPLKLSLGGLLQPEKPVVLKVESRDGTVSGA
compound,measurement,setting,value
Cc1ccccc1NC(=O)CN1C(=O)S/C(=C\c2cccn2-c2cccc(C(=O)O)c2)C1=O,IC50,[1],4.23 µM (active)
same,EC50,[2],> 300 µM (not active)
same,EC50,[3],> 300 µM (not active)
CCOC(=O)c1ccc(NC(=O)CC2COc3ccccc3O2)cc1 (configuration not stated),EC50,[4],> 195 µM (not active)
CCc1ccc(OCc2cccc(C(=O)N/N=C\c3cnn(C)c3C)c2)cc1,IC50,[1],9.07 µM (active)
COc1cccc(C(=O)c2cn(CC(=O)NCc3ccco3)c3nc(C)ccc3c2=O)c1,IC50,[1],11.2 µM (active)
O=C1CCN(S(=O)(=O)c2ccccc2)N1,AC50,[5],28.2 µM (inconclusive)
same,AC50,[6],31.2 µM (active)
same,AC50,[7],12.6 µM (inconclusive)
same,EC50,[8],3.73 µM (active)
Cc1nc2c(ncn2-c2ccccc2)c(=O)n1NC(=O)CN1CCOCC1,EC50,[4],> 195 µM (not active)
O=C(COC(=O)CCc1nc(O)c2ccccc2n1)Nc1c(Cl)cccc1C(F)(F)F,IC50,[9],> 79 µM (inactive)
same,EC50,[4],> 195 µM (not active)
Cc1cccc(C)c1NC(=O)CN1C(=O)S/C(=C\c2cccn2-c2cccc(C(=O)O)c2)C1=O,IC50,[1],6.71 µM (active)
same,EC50,[2],60 µM (active)
same,EC50,[3],> 300 µM (not active)
Cc1ccc(C2C(C#N)=C(N)Oc3[nH]nc(C)c32)cc1 (configuration not stated),AC50,[6],7.89 µM (active)
same,EC50,[8],3.56 µM (active)
COCCN1CCC(CNCc2c(C(=O)N3CCCCC3)nc3c(C)cccn23)C1 (configuration not stated),EC50,[2],> 300 µM (not active)
same,EC50,[3],> 300 µM (not active)
COc1ccc(N2CCN(c3ccc(N4C(=O)CC(C)C4=O)cc3[N+](=O)[O-])CC2)cc1 (configuration not stated),EC50,[10],41.1 µM (active)
same,EC50,[11],> 350 µM (not active)
C#CCOc1ccc(Br)cc1C(c1c(C)n[nH]c1O)c1c(C)n[nH]c1O,AC50,[6],0.973 µM (active)
same,EC50,[8],1.03 µM (active)
CCCOc1ccc(C(=O)C2=C(O)C(=O)N(CCN(C)C)C2c2ccc(O)c(OC)c2)cc1 (configuration not stated),EC50,[4],> 195 µM (not active)
Cc1cc(N2CCC(C)CC2)n2ncc(-c3ccccc3)c2n1,EC50,[4],< 0.16 µM (active)
NN1C(=O)/C(=C2/Sc3ccccc3N2CCCS(=O)(=O)O)SC1=S,IC50,[1],8.53 µM (active)
COC(=O)C1=C(COc2ccccc2)NC(=O)NC1c1ccc2ccccc2c1 (configuration not stated),IC50,[1],13.8 µM (active)
O=C(Nc1ccnn1C1CCN(CC2CC=CCC2)CC1)c1ccccc1 (configuration not stated),EC50,[2],52.3 µM (active)
same,EC50,[3],43.2 µM (active)
COc1ccccc1/C=C/CN1CCC(Oc2cc(C(=O)NC3CC3)ccc2OC)CC1,EC50,[4],> 195 µM (not active)
O=C(COC(=O)C1CCCC1)Nc1ncc(Cl)cc1Cl,EC50,[2],34.3 µM (active)
same,EC50,[3],> 300 µM (not active)
Cc1cc(Cl)ccc1OC(C)C(=O)NC(C)C1CCCO1 (configuration not stated),EC50,[4],> 195 µM (not active)
O=C(O)CSc1ccccc1C(=O)O,EC50,[4],> 195 µM (not active)
O=C(N/N=C/c1ccccn1)c1cc(-c2ccc(Br)s2)n[nH]1,IC50,[1],8.5 µM (active)
COc1cccc(-n2c(N)c(-c3nc4ccccc4[nH]3)sc2=S)c1,EC50,[4],> 195 µM (not active)
COC(=O)C1C(=O)N2CCCSC2=C(C#N)C1c1cccs1 (configuration not stated),EC50,[10],> 350 µM (not active)
same,EC50,[11],> 350 µM (not active)
COC(=O)c1[nH]c2ccccc2c1/C=C1\C(=O)NC(=O)N(c2cc(OC)ccc2OC)C1=O,EC50,[10],73.1 µM (active)
same,EC50,[11],> 350 µM (not active)
O=C(COC(=O)c1ccc2c(c1Cl)C(=O)c1ccccc1C2=O)NC1CC1,AC50,[6],26.2 µM (active)
same,EC50,[8],12.9 µM (active)
Cc1sc(-c2ccccn2)nc1OC(=O)c1cccc(Cl)c1Cl,EC50,[2],> 300 µM (not active)
same,EC50,[3],> 300 µM (not active)
CCCc1n[nH]c2c1C(c1cccc(OC(=O)c3ccco3)c1)C(C#N)=C(N)O2 (configuration not stated),AC50,[6],5.48 µM (active)
same,EC50,[8],4.91 µM (active)
CCOC(=O)c1c(C)oc2c1c1c(c3ccccc32)OCN(CCCC(=O)O)C1,EC50,[12],22.8 µM (active)
same,CC50,[13],43.6 µM (active)
same,EC50,[14],11 µM (active)
same,AC50,[6],> 120 µM (inactive)
same,EC50,[8],4.11 µM (active)
